Entries after “also recorded” stand apart in the source; their conditions may differ. Like-named read-outs stand apart in the source and are kept apart here. No end group written: not given here.

The test system of assay [1] is cardiac cells of the apoaequorin-expressing mice. Description: Intracellular calcium ion increase (aequorin luminescence), heart of apoaequorin-expressing mice. As to conditions: for intracellular calcium concentration in cardiac cells (RLU per second): 1 μmol/L of peptide, added at 25 seconds; for luminescence in the heart: organ pieces, peptide final concentrations of 1 μmol/L and of 5 μmol/L. It is filed as cell-based, mouse. As to the method:
(§1) A heart or blood vessel is collected from transgenic mice systemically expressing apoaequorin (WO02/010371) produced by introducing an apoaequorin gene expression vector into fertilized eggs. The obtained heart or blood vessel is cut finely into pieces, suspended in a medium containing coelenterazine, and then incubated to incorporate coelenterazine into the cells to form aequorin (a complex of apoaequorin and coelenterazine). Since aequorin luminesces upon binding to intracellular calcium ions, the relative luminescence level in cells before and after addition of a medium containing the peptide or a pharmaceutically acceptable salt thereof is measured in a luminometer every second over time and is used as an indicator of intracellular calcium ion concentration. Increase in the relative luminescence level due to addition of the peptide or pharmaceutically acceptable salt thereof confirms that the peptide or pharmaceutically acceptable salt thereof has the activity to increase intracellular calcium ion concentration.
(§2) Whether Peptides 1 to 5, 9 and 10 synthesized in Example 2 have the activity of increasing intracellular calcium ion concentration was investigated using the organs of transgenic mice introduced with the apoaequorin gene and systemically expressing apoaequorin (hereinafter referred to as apoaequorin-expressing mice). In apoaequorin-expressing mouse cells, light is emitted when apoaequorin binds to a calcium ion in the presence of the luminescent substrate coelenterazine and thus the intracellular calcium ion concentration can be monitored. Patent Document (WO02/010371) discloses the method for producing apoaequorin-expressing mice, method for evaluating biologically active substances that use biological samples derived from the mice, and experimental results of evaluating biologically active peptides using the mouse organs as shown below. […] Therefore, apoaequorin-expressing mice can be used in the evaluation of the physiological activities of novel peptides.
(§3) Apoaequorin-expressing mice were produced according to the method disclosed in Reference Example 4 of Patent Document (WO02/010371). The apoaequorin-expressing mice were sacrificed, individual organs including thymus, spleen, bone, blood vessel, heart, kidney, adrenal gland, pancreas, pituitary gland, and uterus, were removed; and each of the organs was cut into small cubes of approximately 1 to 2 mm^3. Next, in 5-mL tubes (Rohren-Tubes; manufactured by Sarstedt, No. 55.476), three portions of each of the prepared organs were added to 50 μL of a 10 μmol/L solution of coelenterazine (manufactured by Molecular Probes) dissolved in RPMI 1640 medium, and these were cultured at 37° C. for three hours. After culturing, RPMI 1640 medium was added, and then Peptides 1 to 5, 9 and 10 dissolved in RPMI 1640 medium were added 25 seconds after the addition of RPMI 1640 until each peptide had final concentrations of 1 μmol/L and of 5 μmol/L, and the relative luminescence levels were measured every second immediately after the addition of RPMI 1640 medium by using a luminometer (AutoLumat LB953, manufactured by Berthold).
A general note: Calcium assays in cells follow changes in intracellular calcium, usually with a dye or a luminescent sensor.

In assay [2] the test system is vascular cells of the apoaequorin-expressing mice. Description: Intracellular calcium ion increase (aequorin luminescence), blood vessel of apoaequorin-expressing mice. It is filed as cell-based, mouse. Particulars: for luminescence in the blood vessel: organ pieces, peptide final concentrations of 1 μmol/L and of 5 μmol/L. As to the method:
as §1, §2, §3

Assay [3] has as its system thymus. Description: Aequorin luminescence, thymus of apoaequorin-expressing mice. It is filed as cell-based, mouse. As to conditions: organ pieces, peptide final concentrations of 1 μmol/L and of 5 μmol/L.
From the text: as §2, §3

Assay [4] deals with spleen. The assay can be described thus: Aequorin luminescence, spleen of apoaequorin-expressing mice. It is filed as cell-based, mouse. Particulars: organ pieces, peptide final concentrations of 1 μmol/L and of 5 μmol/L.
From the text: as §2, §3

Assay [5] relates to bone. The assay can be described thus: Aequorin luminescence, bone of apoaequorin-expressing mice. It is filed as cell-based, mouse. As to conditions: organ pieces, peptide final concentrations of 1 μmol/L and of 5 μmol/L. From the text:
(§4) Whether Peptides 1 to 5, 9 and 10 synthesized in Example 2 have the activity of increasing intracellular calcium ion concentration was investigated using the organs of transgenic mice introduced with the apoaequorin gene and systemically expressing apoaequorin (hereinafter referred to as apoaequorin-expressing mice). In apoaequorin-expressing mouse cells, light is emitted when apoaequorin binds to a calcium ion in the presence of the luminescent substrate coelenterazine and thus the intracellular calcium ion concentration can be monitored. Patent Document (WO02/010371) discloses the method for producing apoaequorin-expressing mice, method for evaluating biologically active substances that use biological samples derived from the mice, and experimental results of evaluating biologically active peptides using the mouse organs as shown below. […]
(§5) Apoaequorin-expressing mice were produced according to the method disclosed in Reference Example 4 of Patent Document (WO02/010371). […] After culturing, RPMI 1640 medium was added, and then Peptides 1 to 5, 9 and 10 dissolved in RPMI 1640 medium were added 25 seconds after the addition of RPMI 1640 until each peptide had final concentrations of 1 μmol/L and of 5 μmol/L, and the relative luminescence levels were measured every second immediately after the addition of RPMI 1640 medium by using a luminometer (AutoLumat LB953, manufactured by Berthold).

For assay [6], the system named is uterus. Description: Aequorin luminescence, uterus of apoaequorin-expressing mice. As to conditions: organ pieces, peptide final concentrations of 1 μmol/L and of 5 μmol/L. It is filed as cell-based, mouse.
From the text: as §2, §3

Assay [7] in a line: Effect on rat blood pressure (anesthetized rats, bolus injection). It is filed as in vivo. Particulars: 300 nmol in saline, bolus injection into external jugular vein, anesthetized male Wistar rats. As to the method:
Catheters are inserted into the external jugular vein and internal carotid artery of an anesthetized animal such as rat or the like, and arterial pressure is measured continuously by connecting the catheter in the internal carotid artery to a blood pressure monitor. The peptide or pharmaceutically acceptable salt dissolved in physiological saline is administered through the external jugular vein.
Wistar rats (male, 10-weeks old, 250 to 300 g) were anesthetized by intraperitoneally administering Pentobarbital at 50 mg/kg body weight. Catheters were inserted into the external jugular vein and internal carotid artery of the anesthetized rats; the catheter in the internal carotid artery was connected to a blood pressure monitor; 300 nmol of Peptide 2 dissolved in saline (100 μL) was administered from the external jugular vein by bolus injection; and blood pressure was measured continuously.

The test system of assay [8] is antiserum (rabbit, Peptide 7-KLH conjugate as antigen). The assay can be described thus: Binding specificity of antiserum by competitive RIA with [125I]-labeled Peptide 1. As to the method: As controls, reactions that use RIA buffer instead of the antiserum to measure non-specific binding, and reactions […] that use RIA buffer instead of VGF-derived peptide solutions to measure the maximum binding level were carried out. Reactions for non-specific binding were performed in quadruplicates, and the other reactions were performed in duplicates, and for each of the reactants, the immune complex was precipitated as in the above-mentioned antibody titer measurements, and its radioactivity (cpm) was measured. The average radioactivity of non-specific binding reaction is defined as non-specific binding level N, the radioactivity value for each VGF-derived peptide addition reaction is defined as Y, and the radioactivity value of maximum binding reaction is defined as Z. The percentage ratio (B/B0) of antiserum specific binding level (B) with peptide addition to the maximum binding level (B0), was determined using the following formula.
B/B0 (%)={(Y−N)/(Z−N)}×100
Accordingly, the amount of peptide that achieves 50% B/B0, more specifically, the amount of peptide that yields 50% inhibition of the maximum binding level, was used as an indicator of the peptide binding activity to the antiserum.
The amounts of peptide/tube used for performing the measurements were 0.5, 1, 2, 4, 8, 16, 32, 64, 128, 256, 512 and 1024 fmol for Peptide 1; 1, 2, 4, 8, 16, 32, 64, 128, 256, 512 and 1024 fmol for Peptide 2; 1, 3.3, 10, 33, 100, 333, 1000, 3300, 10,000, 33,000, 100,000, 333,000 and 1,000,000 fmol for Peptide 3; and 1,000, 10,000, 100,000 and 1,000,000 fmol for Peptide 8.

Assay [9] concerns kidney. Description: Aequorin luminescence, kidney of apoaequorin-expressing mice. It is filed as cell-based, mouse. As to conditions: organ pieces, peptide final concentrations of 1 μmol/L and of 5 μmol/L.
From the text: as §4, §5

The subject of assay [10] is adrenal gland. The assay can be described thus: Aequorin luminescence, adrenal gland of apoaequorin-expressing mice. Particulars: organ pieces, peptide final concentrations of 1 μmol/L and of 5 μmol/L. It is filed as cell-based, mouse.
From the text: as §4, §5

For assay [11], the system named is pituitary gland. The assay can be described thus: Aequorin luminescence, pituitary gland of apoaequorin-expressing mice. It is filed as cell-based, mouse. As to conditions: organ pieces, peptide final concentrations of 1 μmol/L and of 5 μmol/L.
From the text: as §2, §3

Assay [12] deals with vascular cells of the apoaequorin-expressing mice. As to conditions: final concentration of 1 μmol/L; reported in WO02/010371; cited from earlier work.
The subject of assay [13] is adrenal gland. Particulars: final concentration of 1 μmol/L; reported in WO02/010371; cited from earlier work.
Assay [14] concerns uterus. Particulars: final concentration of 1 μmol/L; reported in WO02/010371; cited from earlier work.
Where [15] appears, read: VGF-derived peptides, sequentially diluted.

“Peptide 2: positions 554 to 577 of human VGF (SEQ ID NO: 3) with C-terminal amide (TLQPPSALRRRHYHHALPPSRHYP-NH2)”: in assay [1], the “intracellular calcium concentration in cardiac cells (RLU per second)” value is “increase of intracellular calcium concentration” and the “luminescence in the heart” value was “luminescence was observed”. Further, in assay [2] (5 μmol/L of peptide, added at 25 seconds), the “intracellular calcium concentration in vascular cells (RLU per second)” value is reported as “increase of intracellular calcium concentration”. Further, the “luminescence in the blood vessel” value in assay [2] was “luminescence was observed”. Moreover, in assay [3], the “luminescence in the thymus” value is “luminescence was observed”. For the same substance, the “luminescence in the spleen” value in assay [4] is “luminescence was observed”. Moreover, the “luminescence in the bone” value in [5] was “luminescence was observed”. For the same substance, in assay [6], the “luminescence in the uterus” value is given as “luminescence was observed”. In addition, the “change in average arterial blood pressure” value in assay [7] is on record as “obvious increase in blood pressure; also recorded: increase of blood pressure”. Moreover, the “inhibition of antiserum binding to [125I]-labeled Peptide 1” value (shortened to “inhibition of antiserum binding”) in [8] (setting [15]) is “same degree of quantity-dependent inhibition”.

Consider “Peptide 3: positions 554 to 583 of the amino acid sequence of human VGF, termini unmodified (H-TLQPPSALRRRHYHHALPPSRHYPGREAQA-OH)”, for which, in assay [1], the “intracellular calcium concentration in cardiac cells (RLU per second)” value is reported as “increase of intracellular calcium concentration” and the “luminescence in the heart” value is “luminescence was observed”. For the same substance, in assay [2], the “luminescence in the blood vessel” value is “luminescence was observed”. Moreover, the “luminescence in the thymus” value in assay [3] is “luminescence was observed”. For the same substance, the “luminescence in the spleen” value in [4] is “luminescence was observed”. In [5], the “luminescence in the bone” value is recorded as “luminescence was observed”. Further, in [9], the “luminescence in the kidney” value was “luminescence was observed”. Further, in assay [10], the “luminescence in the adrenal gland” value was “luminescence was observed”. The “luminescence in the pituitary gland” value in assay [11] is “luminescence was observed”. In assay [6], the “luminescence in the uterus” value was “luminescence was observed”. The “inhibition of antiserum binding” value in assay [8] (setting [15]) is “dose-dependent inhibition of antiserum binding but the inhibition was weak”. For the same substance, the “antiserum binding relative to the Peptide 1 binding” value in assay [8] (fraction of the Peptide 1 binding) is listed as 1/10000. In addition, the “amount required to show the same degree of inhibition as Peptides 1 and 2” value in assay [8] (relative to Peptides 1 and 2) is “approximately 10,000 folds”.

Regarding “angiotensin II (DRVYIHPF) [non-VGF peptide]”, the “inhibition of antiserum binding” value in assay [8] (non-VGF peptides at 1, 10, and 100 pmol) is on record as “none of the peptides showed inhibition”. The “luminescence in the blood vessels” value in assay [12] is given as “strong luminescence was observed”. In addition, the “luminescence in the adrenal glands” value in [13] is “strong luminescence was observed”. The “luminescence in the uterus” value in assay [14] is listed as “strong luminescence was observed”.

The values above are taken from patent US20100248255A1, “NOVEL PEPTIDES” (KYOWA HAKKO KOGYO CO., LTD, priority 2005, published 2010).
